From US20230085307A1, “PYRIDAZINONE COMPOUND AND HERBICIDE” (NISSAN CHEMICAL CORPORATION, priority 2019, published 2023)

Assays:
velvetleaf [1] = test: Test Example 5: herbicidal effect by foliage application, plastic box (Table 20, symbol M); assay type: in vivo, velvetleaf (Abutilon theophrasti); details: foliage application, 320 g/ha
In short: (§1)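 Plants sown in sterilized diluvial soil and grown 14 days in a greenhouse at 25° C to 30° C, then sprayed on the foliage with the compound's emulsion diluted in water to a predetermined herbicide amount. Injury to weeds and crops scored three weeks after application on a visual rating scale.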

Italian ryegrass [2] = test: Test Example 4: herbicidal effect by soil treatment (Table 19, symbol K); assay type: in vivo, Italian ryegrass (Lolium multiflorum); details: amount of applied herbicide 320 g/ha
In short: (§2)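 Three weeks of greenhouse growth at 25° C. to 30° C. followed a uniform surface spray of water-diluted emulsion at a predetermined herbicide amount. Seeds had been sown beforehand under about 1.5 cm of sterilized diluvial soil. Grading followed criteria set out in an earlier test.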

barnyard grass [3] = test: Test Example 4: herbicidal effect by soil treatment (Table 19, symbol H); assay type: in vivo, barnyard grass (Echinochloa crus-galli); details: amount of applied herbicide 320 g/ha
In short: as §2

redroot pigweed [4] = test: Test Example 4: herbicidal effect by soil treatment (Table 19, symbol N); assay type: in vivo, redroot pigweed (Amaranthus retroflexus); details: amount of applied herbicide 320 g/ha
In short: as §2

persian speedwell [5] = test: Test Example 4: herbicidal effect by soil treatment (Table 19, symbol R); assay type: in vivo, Persian speedwell (Veronica persica); details: amount of applied herbicide 320 g/ha
In short: as §2

persian speedwell [6] = test: Test Example 5: herbicidal effect by foliage application, plastic box (Table 20, symbol R); assay type: in vivo, Persian speedwell (Veronica persica); details: foliage application, 320 g/ha
In short: as §1

blackgrass [7] = test: Test Example 5: herbicidal effect by foliage application, plastic box (Table 20, symbol J); assay type: in vivo, blackgrass (Alopecurus myosuroides); details: foliage application, 320 g/ha
In short: as §1

velvetleaf [8] = test: Test Example 4: herbicidal effect by soil treatment (Table 19, symbol M); assay type: in vivo, velvetleaf (Abutilon theophrasti); details: amount of applied herbicide 320 g/ha
In short: as §2

southern crabgrass [9] = test: Test Example 4: herbicidal effect by soil treatment (Table 19, symbol F); assay type: in vivo, southern crabgrass (Digitaria ciliaris); details: amount of applied herbicide 320 g/ha
In short: as §2

barnyard grass [10] = test: Test Example 5: herbicidal effect by foliage application, plastic box (Table 20, symbol H); assay type: in vivo, barnyard grass (Echinochloa crus-galli); details: foliage application, 320 g/ha
In short: as §1

barnyard grass [11] = test: Test Example 3: herbicidal effect by foliage application, Wagner pot (Table 18, symbol H); assay type: in vivo, barnyard grass (Echinochloa crus-galli)
In short: (§3)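 Plants were sown in alluvial soil held under 0.1–0.5 cm standing water and grown 14 days in a greenhouse at 25–30 °C. An emulsifiable formulation, water-diluted to the set dose, was then sprayed onto the foliage, and effects were scored three weeks later using previously defined criteria.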

wild oat [12] = test: Test Example 5: herbicidal effect by foliage application, plastic box (Table 20, symbol I); assay type: in vivo, wild oat (Avena fatua); details: foliage application, 320 g/ha
In short: as §1

chickweed [13] = test: Test Example 4: herbicidal effect by soil treatment (Table 19, symbol P); assay type: in vivo, common chickweed (Stellaria media); details: amount of applied herbicide 320 g/ha
In short: as §2

false cleavers [14] = test: Test Example 4: herbicidal effect by soil treatment (Table 19, symbol Q); assay type: in vivo, false cleavers (Galium spurium); details: amount of applied herbicide 320 g/ha
In short: as §2

lambsquarters [15] = test: Test Example 4: herbicidal effect by soil treatment (Table 19, symbol O); assay type: in vivo, lambsquarters (Chenopodium album); details: amount of applied herbicide 320 g/ha
In short: as §2

windgrass [16] = test: Test Example 5: herbicidal effect by foliage application, plastic box (Table 20, symbol L); assay type: in vivo, windgrass (Apera spica-venti); details: foliage application, 320 g/ha
In short: as §1

green foxtail [17] = test: Test Example 4: herbicidal effect by soil treatment (Table 19, symbol G); assay type: in vivo, green foxtail (Setaria viridis); details: amount of applied herbicide 320 g/ha
In short: as §2

rice flat sedge = test: Test Example 3: herbicidal effect by foliage application, Wagner pot (Table 18, symbol E); assay type: in vivo, rice flat sedge (Cyperus iria)
In short: as §3

windgrass [18] = test: Test Example 4: herbicidal effect by soil treatment (Table 19, symbol L); assay type: in vivo, windgrass (Apera spica-venti); details: amount of applied herbicide 320 g/ha
In short: as §2

redroot pigweed [19] = test: Test Example 5: herbicidal effect by foliage application, plastic box (Table 20, symbol N); assay type: in vivo, redroot pigweed (Amaranthus retroflexus); details: foliage application, 320 g/ha
In short: as §1

Italian ryegrass [20] = test: Test Example 5: herbicidal effect by foliage application, plastic box (Table 20, symbol K); assay type: in vivo, Italian ryegrass (Lolium multiflorum); details: foliage application, 320 g/ha
In short: as §1

wild oat [21] = test: Test Example 4: herbicidal effect by soil treatment (Table 19, symbol I); assay type: in vivo, wild oat (Avena fatua); details: amount of applied herbicide 320 g/ha
In short: as §2

chickweed [22] = test: Test Example 5: herbicidal effect by foliage application, plastic box (Table 20, symbol P); assay type: in vivo, common chickweed (Stellaria media); details: foliage application, 320 g/ha
In short: as §1

lambsquarters [23] = test: Test Example 5: herbicidal effect by foliage application, plastic box (Table 20, symbol O); assay type: in vivo, lambsquarters (Chenopodium album); details: foliage application, 320 g/ha
In short: as §1

blackgrass [24] = test: Test Example 4: herbicidal effect by soil treatment (Table 19, symbol J); assay type: in vivo, blackgrass (Alopecurus myosuroides); details: amount of applied herbicide 320 g/ha
In short: as §2

false cleavers [25] = test: Test Example 5: herbicidal effect by foliage application, plastic box (Table 20, symbol Q); assay type: in vivo, false cleavers (Galium spurium); details: foliage application, 320 g/ha
In short: as §1

southern crabgrass [26] = test: Test Example 5: herbicidal effect by foliage application, plastic box (Table 20, symbol F); assay type: in vivo, southern crabgrass (Digitaria ciliaris); details: foliage application, 320 g/ha
In short: as §1

Chinese sprangletop = test: Test Example 3: herbicidal effect by foliage application, Wagner pot (Table 18, symbol D); assay type: in vivo, chinese sprangletop (Leptochloa chinensis)
In short: as §3

green foxtail [27] = test: Test Example 5: herbicidal effect by foliage application, plastic box (Table 20, symbol G); assay type: in vivo, green foxtail (Setaria viridis); details: foliage application, 320 g/ha
In short: as §1

[28] = evaluated three weeks after application
[29] = amount of applied herbicide 320 g/ha

Compound: COc1ccc2c(-c3c(O)c(C)nn(C)c3=O)c(-c3ccc(F)cc3)sc2c1 [3-063]
- M: velvetleaf, herbicidal effect grade (velvetleaf [1]; three weeks after application): 5 (Herbicidal rate of 90% or more (almost completely withered))
- K: Italian ryegrass, herbicidal effect grade (Italian ryegrass [2]): 0 (Herbicidal rate of 5% or less (almost no effect))
- H: barnyard grass, herbicidal effect grade (barnyard grass [3]): 0 (Herbicidal rate of 5% or less (almost no effect))
- N: redroot pigweed, herbicidal effect grade (redroot pigweed [4]): 3 (Herbicidal rate of 40% or more and less than 70%)
- R: persian speedwell, herbicidal effect grade (persian speedwell [5]): 5 (Herbicidal rate of 90% or more (almost completely withered))
- R: persian speedwell, herbicidal effect grade (persian speedwell [6]; three weeks after application): 5 (Herbicidal rate of 90% or more (almost completely withered))
- J: blackgrass, herbicidal effect grade (blackgrass [7]; three weeks after application): 0 (Herbicidal rate of 5% or less (almost no effect))
- M: velvetleaf, herbicidal effect grade (velvetleaf [8]): 2 (Herbicidal rate of 20% or more and less than 40%)
- F: southern crabgrass, herbicidal effect grade (southern crabgrass [9]): 0 (Herbicidal rate of 5% or less (almost no effect))
- H: barnyard grass, herbicidal effect grade (barnyard grass [10]; three weeks after application): 0 (Herbicidal rate of 5% or less (almost no effect))
- herbicidal effect on barnyard grass (H) (barnyard grass [11]; 320 g/ha): 0 (Herbicidal rate of 5% or less (almost no effect))
- I: wild oat, herbicidal effect grade (wild oat [12]; three weeks after application): 2 (Herbicidal rate of 20% or more and less than 40%)
- P: chickweed, herbicidal effect grade (chickweed [13]): 5 (Herbicidal rate of 90% or more (almost completely withered))
- Q: false cleavers, herbicidal effect grade (false cleavers [14]): 2 (Herbicidal rate of 20% or more and less than 40%)
- O: lambsquarters, herbicidal effect grade (lambsquarters [15]): 5 (Herbicidal rate of 90% or more (almost completely withered))
- L: windgrass, herbicidal effect grade (windgrass [16]; three weeks after application): 2 (Herbicidal rate of 20% or more and less than 40%)
- G: green foxtail, herbicidal effect grade (green foxtail [17]): 0 (Herbicidal rate of 5% or less (almost no effect))
- herbicidal effect on rice flat sedge (E) (rice flat sedge; 320 g/ha): 5 (Herbicidal rate of 90% or more (almost completely withered))
- L: windgrass, herbicidal effect grade (windgrass [18]): 0 (Herbicidal rate of 5% or less (almost no effect))
- N: redroot pigweed, herbicidal effect grade (redroot pigweed [19]; three weeks after application): 4 (Herbicidal rate of 70% or more and less than 90%)
- K: Italian ryegrass, herbicidal effect grade (Italian ryegrass [20]; three weeks after application): 3 (Herbicidal rate of 40% or more and less than 70%)
- I: wild oat, herbicidal effect grade (wild oat [21]): 1 (Herbicidal rate of 5% or more and less than 20%)
- P: chickweed, herbicidal effect grade (chickweed [22]; three weeks after application): 5 (Herbicidal rate of 90% or more (almost completely withered))
- O: lambsquarters, herbicidal effect grade (lambsquarters [23]; three weeks after application): 3 (Herbicidal rate of 40% or more and less than 70%)
- J: blackgrass, herbicidal effect grade (blackgrass [24]): 0 (Herbicidal rate of 5% or less (almost no effect))
- Q: false cleavers, herbicidal effect grade (false cleavers [25]; three weeks after application): 5 (Herbicidal rate of 90% or more (almost completely withered))
- F: southern crabgrass, herbicidal effect grade (southern crabgrass [26]; three weeks after application): 0 (Herbicidal rate of 5% or less (almost no effect))
- herbicidal effect on Chinese sprangletop (D) (Chinese sprangletop; 320 g/ha): 0 (Herbicidal rate of 5% or less (almost no effect))
- G: green foxtail, herbicidal effect grade (green foxtail [27]; three weeks after application): 0 (Herbicidal rate of 5% or less (almost no effect))

Compound: CCCC(=O)Oc1c(C)nn(C)c(=O)c1-c1c(-c2cc(F)ccc2OC)sc2ccc(C)cc12 [2-151]
- herbicidal effect on M: velvetleaf (criteria 0-5) (velvetleaf [1]; [28]): 1 (Herbicidal rate of 5% or more and less than 20%)
- K: Italian ryegrass, herbicidal effect rating (Italian ryegrass [2]): 0 (Herbicidal rate of 5% or less (almost no effect))
- H: barnyard grass, herbicidal effect rating (barnyard grass [3]): 0 (Herbicidal rate of 5% or less (almost no effect))
- N: redroot pigweed, herbicidal effect rating (redroot pigweed [4]): 4 (Herbicidal rate of 70% or more and less than 90%)
- R: persian speedwell, herbicidal effect rating (persian speedwell [5]): 3 (Herbicidal rate of 40% or more and less than 70%)
- herbicidal effect on R: persian speedwell (criteria 0-5) (persian speedwell [6]; [28]): 4 (Herbicidal rate of 70% or more and less than 90%)
- herbicidal effect on J: blackgrass (criteria 0-5) (blackgrass [7]; [28]): 0 (Herbicidal rate of 5% or less (almost no effect))
- M: velvetleaf, herbicidal effect rating (velvetleaf [8]): 0 (Herbicidal rate of 5% or less (almost no effect))
- F: southern crabgrass, herbicidal effect rating (southern crabgrass [9]): 0 (Herbicidal rate of 5% or less (almost no effect))
- herbicidal effect on H: barnyard grass (criteria 0-5) (barnyard grass [10]; [28]): 0 (Herbicidal rate of 5% or less (almost no effect))
- herbicidal effect on H: barnyard grass (barnyard grass [11]; [29]): 3 (Herbicidal rate of 40% or more and less than 70%)
- herbicidal effect on I: wild oat (criteria 0-5) (wild oat [12]; [28]): 0 (Herbicidal rate of 5% or less (almost no effect))
- P: chickweed, herbicidal effect rating (chickweed [13]): 1 (Herbicidal rate of 5% or more and less than 20%)
- Q: false cleavers, herbicidal effect rating (false cleavers [14]): 0 (Herbicidal rate of 5% or less (almost no effect))
- O: lambsquarters, herbicidal effect rating (lambsquarters [15]): 4 (Herbicidal rate of 70% or more and less than 90%)
- herbicidal effect on L: windgrass (criteria 0-5) (windgrass [16]; [28]): 0 (Herbicidal rate of 5% or less (almost no effect))
- G: green foxtail, herbicidal effect rating (green foxtail [17]): 0 (Herbicidal rate of 5% or less (almost no effect))
- herbicidal effect on E: rice flat sedge (rice flat sedge; [29]): 3 (Herbicidal rate of 40% or more and less than 70%)
- L: windgrass, herbicidal effect rating (windgrass [18]): 0 (Herbicidal rate of 5% or less (almost no effect))
- herbicidal effect on N: redroot pigweed (criteria 0-5) (redroot pigweed [19]; [28]): 3 (Herbicidal rate of 40% or more and less than 70%)
- herbicidal effect on K: Italian ryegrass (criteria 0-5) (Italian ryegrass [20]; [28]): 0 (Herbicidal rate of 5% or less (almost no effect))
- I: wild oat, herbicidal effect rating (wild oat [21]): 0 (Herbicidal rate of 5% or less (almost no effect))
- herbicidal effect on P: chickweed (criteria 0-5) (chickweed [22]; [28]): 4 (Herbicidal rate of 70% or more and less than 90%)
- herbicidal effect on O: lambsquarters (criteria 0-5) (lambsquarters [23]; [28]): 2 (Herbicidal rate of 20% or more and less than 40%)
- J: blackgrass, herbicidal effect rating (blackgrass [24]): 0 (Herbicidal rate of 5% or less (almost no effect))
- herbicidal effect on Q: false cleavers (criteria 0-5) (false cleavers [25]; [28]): 2 (Herbicidal rate of 20% or more and less than 40%)
- herbicidal effect on F: southern crabgrass (criteria 0-5) (southern crabgrass [26]; [28]): 0 (Herbicidal rate of 5% or less (almost no effect))
- herbicidal effect on D: Chinese sprangletop (Chinese sprangletop; [29]): 0 (Herbicidal rate of 5% or less (almost no effect))
- herbicidal effect on G: green foxtail (criteria 0-5) (green foxtail [27]; [28]): 0 (Herbicidal rate of 5% or less (almost no effect))
